Experimental findings from paper PMC10851555, “Safinamide, an inhibitor of monoamine oxidase, modulates the magnitude, gating, and hysteresis of sodium ion current” (BMC Pharmacology & Toxicology, 2024) are described below.

What all share (assay type): cell-based, rat
Experiment [1] has as its system voltage-gated sodium ion (NaV) channels in pituitary GH3 cells. Briefly: Whole-cell patch-clamp of INa induced by a 30-ms depolarizing pulse (−100 to −10 mV) in GH3 cells. The note with it: for reversal of SAF-mediated increase in INa(T): 10 μM added during exposure to SAF (30 μM); for reversal of SAF-mediated increase in INa(T) / effect on magnitude of INa(T): n = 7; for effect on magnitude of INa(T): dopamine or serotonin alone. A general note: In patch-clamp work, channel activity is measured electrically.

For experiment [2] the test system is unchanged. Briefly: Whole-cell INa(T) decay during a 1-s, 20-Hz train of depolarizing pulses in GH3 cells. Particulars: for effect on SAF-induced increase in decaying time constant of INa(T): 10 μM added in the presence of 10 μM SAF; for decaying time constant of INa(T) during train of depolarizing pulses: 10 μM alone, control 66 ± 5 ms, n = 7. The procedure: Shortly before experiments, GH3 was carefully suspended in normal Tyrode’s solution at room temperature (20–25 °C). A few drops of the suspension containing cell clumps were immediately added to a custom-built chamber on the stage of an inverted Diaphot-200 microscope (Nikon, Tokyo, Japan). Pipettes were pulled from Kimax-51 soft-glass capillaries (#34500-99; Kimble, Vineland, NJ) by using a Narishige PP-830 Vertical Puller (Tokyo, Japan), and their tips were fire-polished using a microforge (MF-83, Narishige). During the measurements, an electrode with a tip resistance of 2–4 MΩ, which was tightly inserted into a holder, was maneuvered using a WR-98 micromanipulator (Narishige). Patch-clamp experiments were performed in the voltage-clamp mode with either cell-attached or whole-cell configuration (rupturing of the membrane patch after GΩ formation) by using a RK-400 Patch-Clamp Amplifier (Bio-Logic, Claix, France) connected to a laptop. Shortly before GΩ formation, potential correction was performed for a liquid junction potential, which developed at the electrode’s tip because of the difference in the compositions of the internal and bath solutions.
SAF is efficacious as an add-on therapy following subthalamic nucleus deep brain stimulation in patients with Parkinson’s disease. Therefore, we investigated whether SAF could modify the inactivation of currents induced by a train of depolarizing stimuli. The test cells were maintained at −80 mV and subjected to repetitive depolarization to −10 mV (40 ms per pulse; rate of 20 Hz; duration of 1 s). Similar to the findings of relevant studies, during the control period (the absence of SAF), INa(T) inactivation was noticed to be induced by 1 s of repetitive depolarization stimuli (−80 to −10 mV) with a decaying time constant of 65 ± 4 ms (n = 7; Fig. 6A, 6B and 6C). […] In the presence of 3 and 10 μM SAF, the exponential time course of INa(T) induced by the same train of depolarizing pulses was longer at 107 ± 5 ms (n = 7, P < 0.05) and 124 ± 6 ms (n = 7, P < 0.05), respectively. Furthermore, as MGB and ranolazine have been reported to suppress the amplitude of INa effectively, we added ranolazine (Ran; 10 μM) and mirogabalin (MGB; 10 μM) separately in the presence of 10 μM SAF. […] The application of Ran (10 μM) or MGB (10 μM) alone decreased the decaying time constant of INa(T) during the same train of depolarizing pulses to 39 ± 4 ms (n = 7, P < 0.05) or 42 ± 4 ms (n = 7, P < 0.05), respectively, from a control value of 66 ± 5 ms (n = 7). Thus, in addition to increasing the magnitude of INa(T), SAF prominently affects the decaying of INa(T) subjected to a 1-s train of depolarizing pulses.
Fig. 6 Effect of SAF on INa(T) decay induced by a train of depolarizing pulses in GH3 cells. The train of pulses comprised twenty 40-ms pulses (voltage increased to −10 mV) with 10-ms intervals at −80 mV for a total duration of 1 s. (A) Current traces during the control period (a, blue) and during exposure to 10 μM SAF (b, red). The voltage-clamp protocol used is indicated atop the current traces. In panel A, the third graphs (blue and red) from the top are the expanded forms of the second graphs (brown dashed boxes). (B) The relative amplitude of INa(T) versus pulse train duration in the absence (blue open circles) and presence (red open squares) of 10 μM SAF (mean ± standard error of the mean; n = 7 for each point). The INa(T) amplitudes were normalized by dividing the current amplitudes at the end of each pulse-train stimulation by those obtained at the beginning of the pulse train stimulation. The gray continuous lines on which the data points are overlaid are reliably fitted with a single exponential.

Experiment [3] relates to single NaV channels in GH3 cells. The experiment is described as follows: Cell-attached single-channel NaV current recordings in GH3 cells. The note with it: n = 7. The procedure: The composition of the external or bath solution [4-(2-hydroxyethyl)-1-piperazineethanesulfonic acid (HEPES)-buffered normal Tyrode’s solution] was as follows: 136.5 mM NaCl, 1.8 mM CaCl2, 5.4 mM KCl, 0.53 mM MgCl2, 5.5 mM glucose, and 5.5 mM HEPES–NaOH (pH 7.4). To measure K^+ currents (data not shown), we filled a patch pipette with an internal solution comprising 140 mM KCl, 1 mM MgCl2, 3 mM adenosine 5′-triphosphate disodium salt, 0.1 mM guanosine 5′-triphosphate disodium salt, 0.1 mM ethylene glycol tetraacetic acid, and 5 mM HEPES–KOH buffer (pH 7.2). To record the whole-cell INa, the K^+ in the internal solution was substituted with Cs^+, and the pH of the solution was adjusted to 7.2 by adding cesium hydroxide. In the single-channel experiments performed to record NaV currents, the pipette was filled with a Na^+-rich solution containing 136 mM NaCl, 0.53 mM MgCl2, 5.5 mM glucose, and 5.5 mM HEPES–NaOH (pH 7.2). The bath medium was a K^+-rich solution comprising 130 mM KCl, 10 mM NaCl, 3 mM MgCl2, 6 mM glucose, and 10 mM HEPES-KOH (pH 7.4). The solutions and culture media were generally filtered on the day of use by using sterile Acrodisc Syringe Filters containing a 0.2-μm Supor Membrane (Bio-Check; New Taipei City, Taiwan).
Single-channel NaV currents induced by depolarizing pulses ranging from −100 to −10 mV were measured and subsequently analyzed using pCLAMP 10.7. The opening events of the channels were generally evaluated through multi-Gaussian adjustments of the distribution of amplitude across channels. Functional independence between channels was determined by comparing the observed stationary probabilities with the values calculated based on the binomial law. For dwell-time analyses, only a single channel was used in the patch-clamp experiment.
To elucidate the mechanisms underlying the effects of SAF on the magnitude of INa, we investigated the actions of SAF and SAF plus MGB on single-channel NaV currents. This experiment was performed using the cell-attached configuration of the voltage-clamp test. Test cells were placed in K^+-rich solution, and the recording pipette was filled with Na^+-rich solution. SAF (10 μM) increased channel activity and decelerated current inactivation when the cells were exposed to depolarization stimuli ascending from –100 to –10 mV (rate of 0.1 Hz; Fig. 9A). Furthermore, the addition of MGB (10 μM) in the presence of 10 μM SAF reduced the probability of channel opening. […] Moreover, with the presence of 10 μM SAF, the mean open time of NaV channels was prolonged to […] (n = 7, P < 0.05) msec from a control value of 2.3 ± 0.3 msec (n = 7). […] Consistent with these findings, the mean open time of the NaV channel in the presence of 10 μM SAF (5.9 ± 1.1 ms; n = 7; P < 0.05) was longer than that in the control period (2.3 ± 0.3 ms, n = 7); the subsequent further addition of 10 μM MGB decreased the mean open time to 3.7 ± 0.7 ms (n = 7, P < 0.05) (Fig. 9B). […] MGB added during SAF exposure reversed the SAF-induced increase in NaV channel activity.

The test system of experiment [4] is voltage-gated sodium ion (NaV) channels in pituitary GH3 cells. Briefly: Window INa [INa(W)] induced by ascending ramp voltage (−100 to +40 mV over 200 ms) in GH3 cells. Particulars: Ran 10 μM added in the presence of SAF 10 μM. An excerpt: The sigmoidal relationship between Vramp-induced INa(W) and the upsloping Vramp (nonlinear current–voltage relationship) was investigated and fitted with the Boltzmann function as follows: [drawing 2]
where V is the membrane potential in millivolts, Erev is the reversal potential of INa, G is the INa conductance in nanosiemens, I is the current, Vh is the voltage at which half-maximal activation or inactivation of the current occurs, q is the apparent gating charge, F is Faraday’s constant, R is the universal gas constant, and T is the absolute temperature.
The free energy ∆G0 for the gating of INa(W) was determined by assuming a two-state gating model [equilibrium between closed (resting) and open states] of the NaV channel. The ∆G0 for the activation of INa(W) at 0 mV could be calculated as follows: q × F × V1/2 [45, 46]. The standard errors in ∆G0 ( [drawing 3] ) could be calculated as follows: […]
In the present study, we investigated whether the addition of SAF to GH3 cells modulates the magnitude of INa(W) induced by ascending Vramp. Test cells were maintained at −80 mV and subjected to Vramp ascending from −100 to +40 mV over 200 ms (i.e., ramp speed of 0.7 mV/ms) to induce INa(W). […] The ∆area values of INa(W) in the absence and presence of SAF and SAF plus Ran were calculated (Fig. 7B).
Fig. 7 Stimulatory effects of SAF on window INa [INa(W)] induced by an ascending ramp voltage Vramp in GH3 cells. For the experiments, the test cells were maintained at −80 mV and subjected to Vramp ranging from −100 to +40 mV over 200 ms (ramp speed of 0.7 mV/ms). (A) INa(W) trace in the absence (a, blue) and presence (b, red) of 10 μM SAF. The inset indicates the Vramp protocol, and the downward deflection indicates inward-directed current. The continuous gray lines corresponding to the untreated or SAF-treated (10 μM) cells were fitted (least-squares minimization) with the Boltzmann equation. The values of […] and q (apparent gating charge) induced by ascending Vramp over 200 ms in the absence (blue) of SAF were, respectively, −34 mV and 2.1 e; the corresponding values in the presence (red) of 10 μM SAF were −38 mV and 2.8 e, respectively. (B) Summary graph illustrating the effects of SAF (3 and 10 μM) and SAF (10 μM) plus Ran (10 μM) on the Δarea of INa(W) in GH3 cells (mean ± standard error of the mean; n = 7 for each point). The value of Δarea was measured at a voltage ranging from −80 and +40 mV, which corresponded to INa(W) induced by the ascending Vramp. […] (C) Summary graph illustrating the effects of SAF (3 and 10 μM) and SAF plus Ran (10 μM) on ΔG0 (mean ± standard error of the mean; n = 7 for each point). The estimation of ΔG0 for the induction of instantaneous INa(W) is described in the Materials and Methods section.

[5] abbreviates: 10 μM MGB added in the presence of 10 μM SAF.

Like-named read-outs stand apart in the source and are kept apart here.

Take `Cc1c(F)c(F)c(COC(=O)[C@@H]2[C@H](/C=C(\Cl)C(F)(F)F)C2(C)C)c(F)c1F` (racemic) [Tef, tefluthrin]: the “effect on rapid inward current (INa) induced by short depolarizing pulse” value (“effect on rapid inward current” below) in experiment [1] (10 μM) is reported as “stimulated”.
For `CCC1=C[C@@H]2[C@H](C1)C[C@]2(CN)CC(=O)O` [MGB, mirogabalin], in experiment [2], the “effect on SAF-induced increase in decaying time constant of INa(T)” value is given as “effectively attenuated the SAF-induced increase in the decaying time constant” and the “decaying time constant of INa(T) during train of depolarizing pulses” value came to 42 ± 4 ms. In addition, in experiment [3] (setting [5]), the “mean open time of the NaV channel” value was 3.7 ± 0.7 ms and the “open-state probability of the NaV channel” value is on record as 0.041 ± 0.007. Moreover, in experiment [3] (SAF plus MGB, control 2.01 ± 0.35 pA), the “amplitude of the single-channel current” value is on record as 2.00 ± 0.44 pA.
Regarding `COc1ccccc1OCC(O)CN1CCN(CC(=O)Nc2c(C)cccc2C)CC1` (stereo not drawn) [Ran, ranolazine], in experiment [2], the “effect on SAF-induced increase in decaying time constant of INa(T)” value was “effectively attenuated the SAF-induced increase in the decaying time constant” and the “decaying time constant of INa(T) during train of depolarizing pulses” value is 39 ± 4 ms. In experiment [4], the “effect on SAF-mediated increase in ∆G0 of INa(W)” value is “effectively attenuated the SAF-mediated increase in ∆G0” and the “effect on SAF-mediated increase in ∆area of INa(W)” value is recorded as “reversed the SAF-mediated increase”.
Take `NC1=N[C@H](O)[C@H]2[C@H]3O[C@]4(O)O[C@@H]([C@@H](O)[C@@]2(N1)[C@@H]4O)[C@]3(O)CO` [TTX, tetrodotoxin]: in experiment [1], the “amplitude of INa(L)” value is on record as 2 ± 1 pA, the “amplitude of INa(T)” value is on record as 18 ± 2 pA and the “effect on rapid inward current” value was “blocked”.
Turning to `NCCc1ccc(O)c(O)c1` [dopamine], in experiment [1], the “reversal of SAF-mediated increase in INa(T)” value was “neither dopamine nor serotonin reversed the SAF-mediated increase in INa(T)” and the “effect on magnitude of INa(T)” value is “neither dopamine nor serotonin altered the magnitude of INa(T)”.
For `C/C=C/C1C(C(=O)OCc2c(F)c(F)c(COC)c(F)c2F)C1(C)C` (stereo not drawn) [metofluthrin], in experiment [1] (10 μM), the “effect on rapid inward current” value is “stimulated”.
Take `NCCc1c[nH]c2ccc(O)cc12` [serotonin]: in experiment [1], the “reversal of SAF-mediated increase in INa(T)” value is given as “neither dopamine nor serotonin reversed the SAF-mediated increase in INa(T)” and the “effect on magnitude of INa(T)” value is recorded as “neither dopamine nor serotonin altered the magnitude of INa(T)”.
